For 3 compounds, CI and IC50 results are on record in ChEMBL document CHEMBL4334526, “Synthesis of Peptoid-Based Class I-Selective Histone Deacetylase Inhibitors with Chemosensitizing Properties” (J Med Chem, 2019).

For assay [1], the target named is T1, Class 1 histone deacetylase (Homo sapiens, UniProt Q13547+O15379+Q92769+Q9BY41). As to the kind of experiment: Inhibition of class 1 HDAC in human CAL27 cells assessed as potentiation of cisplatin-induced cytotoxicity by measuring combination index at […] in presence of […] cisplatin by MTT assay based Chou-Talalay analysis. The assay is classed as cell-based. As to conditions: CAL-27. (Tetrazolium assays rely on reduction of a dye to a coloured formazan, in cell work by metabolically active cells.)

Assay [2] deals with T2, Protein deacetylase HDAC6 (Homo sapiens, UniProt Q9UBN7).
T2 sequence (Q9UBN7 whole entry): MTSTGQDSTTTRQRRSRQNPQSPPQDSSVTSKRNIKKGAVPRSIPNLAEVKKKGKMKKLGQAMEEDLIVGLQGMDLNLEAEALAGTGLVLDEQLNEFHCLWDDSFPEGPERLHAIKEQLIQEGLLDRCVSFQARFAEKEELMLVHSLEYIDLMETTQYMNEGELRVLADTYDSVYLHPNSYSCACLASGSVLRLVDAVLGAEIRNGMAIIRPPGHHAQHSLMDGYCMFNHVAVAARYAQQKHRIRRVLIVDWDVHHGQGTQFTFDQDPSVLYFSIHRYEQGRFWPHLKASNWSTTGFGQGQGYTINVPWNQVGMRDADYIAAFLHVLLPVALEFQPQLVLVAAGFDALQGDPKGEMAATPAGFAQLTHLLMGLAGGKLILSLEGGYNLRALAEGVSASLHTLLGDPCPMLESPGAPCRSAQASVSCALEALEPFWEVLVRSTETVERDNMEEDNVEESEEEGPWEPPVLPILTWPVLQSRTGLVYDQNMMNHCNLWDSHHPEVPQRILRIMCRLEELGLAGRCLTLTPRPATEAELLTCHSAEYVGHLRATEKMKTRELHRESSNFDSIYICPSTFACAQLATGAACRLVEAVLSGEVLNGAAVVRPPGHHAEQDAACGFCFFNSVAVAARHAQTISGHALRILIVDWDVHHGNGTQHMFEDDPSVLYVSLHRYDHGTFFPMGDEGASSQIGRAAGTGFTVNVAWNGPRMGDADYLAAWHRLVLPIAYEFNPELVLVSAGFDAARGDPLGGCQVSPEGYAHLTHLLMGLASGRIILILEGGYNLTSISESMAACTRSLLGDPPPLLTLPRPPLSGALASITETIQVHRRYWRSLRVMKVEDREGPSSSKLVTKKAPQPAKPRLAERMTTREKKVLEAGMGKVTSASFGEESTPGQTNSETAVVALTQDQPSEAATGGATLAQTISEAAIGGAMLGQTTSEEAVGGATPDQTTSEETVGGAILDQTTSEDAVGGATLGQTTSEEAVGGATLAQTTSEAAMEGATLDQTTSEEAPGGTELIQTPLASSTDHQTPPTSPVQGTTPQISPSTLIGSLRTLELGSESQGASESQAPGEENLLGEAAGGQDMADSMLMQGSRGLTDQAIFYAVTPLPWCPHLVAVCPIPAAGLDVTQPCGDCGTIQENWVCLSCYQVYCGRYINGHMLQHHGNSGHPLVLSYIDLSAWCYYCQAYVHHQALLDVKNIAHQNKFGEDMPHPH
Put plainly: Inhibition of human full length N-terminal GST-tagged HDAC6 expressed in baculovirus infected Sf9 insect cells ZMAL as substrate incubated for 90 mins by fluorescence assay. The assay is classed as cell-based.

Assay [3] has as its target Histone deacetylase 1 (Homo sapiens, UniProt Q13547). As to the kind of experiment: Inhibition of recombinant human full length C-terminal His/FLAG-tagged HDAC1 expressed in baculovirus infected Sf9 insect cells using ZMAL as substrate incubated for 90 mins by fluorescence assay.
The subject of assay [4] is CAL-27. As to the kind of experiment: Cytotoxicity against human CAL27 cells assessed as reduction in cell survival measured after 72 hrs by MTT assay. Conditions: CAL-27, 72 h. The assay is classed as functional, cell-based.
Assay [5] addresses Histone deacetylase. As to the kind of experiment: Inhibition of HDAC in human A2780 cells using Boc-Lys(epsilon-Ac)-AMC as substrate preincubated for 18 hrs followed by substrate addition and measured after 3 hrs by fluorescence assay. The assay is classed as cell-based.
Assay [6] has as its target Histone deacetylase. As to the kind of experiment: Inhibition of HDAC in human CAL27 cells using Boc-Lys(epsilon-Ac)-AMC as substrate preincubated for 18 hrs followed by substrate addition and measured after 3 hrs by fluorescence assay. The assay is classed as cell-based.
Assay [7] has as its target Histone deacetylase 4 (Homo sapiens, UniProt P56524). As to the kind of experiment: Inhibition of recombinant human N-terminal GST-fused and C-terminal His-tagged HDAC4 (627 to 1084 residues) expressed in baculovirus infected insect cells using Boc-Lys(TFa)-AMC as substrate preincubated for 5 mins followed by substrate addition and measured after 90 mins by fluorescence assay.

In assay [8] the target is T3, Histone deacetylase 8 (Homo sapiens, UniProt Q9BY41).
T3 sequence (Q9BY41 whole entry): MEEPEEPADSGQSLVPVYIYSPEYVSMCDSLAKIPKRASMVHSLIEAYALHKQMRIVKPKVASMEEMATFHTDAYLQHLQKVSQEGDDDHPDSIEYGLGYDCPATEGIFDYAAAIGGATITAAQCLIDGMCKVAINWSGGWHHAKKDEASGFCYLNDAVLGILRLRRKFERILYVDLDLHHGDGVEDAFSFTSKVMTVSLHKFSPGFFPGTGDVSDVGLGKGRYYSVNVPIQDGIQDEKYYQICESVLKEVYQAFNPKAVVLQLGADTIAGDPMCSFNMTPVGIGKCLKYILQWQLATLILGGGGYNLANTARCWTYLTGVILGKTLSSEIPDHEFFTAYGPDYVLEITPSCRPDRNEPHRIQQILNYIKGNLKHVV
As to the kind of experiment: Inhibition of recombinant human C-terminal His-fusion tagged/N-terminal Strep-2 tagged HDAC8 (1 to 377 residues) expressed in insect cells using Boc-Lys(TFa)-AMC as substrate preincubated for 5 mins followed by substrate addition measured after 90 mins by fluorescence assay.

For assay [9], the target named is T1, Class 1 histone deacetylase. As to the kind of experiment: Inhibition of class 1 HDAC in human CAL27 cells assessed as potentiation of cisplatin-induced cytotoxicity by measuring combination index at […] in presence of 0.1 uM cisplatin by MTT assay based Chou-Talalay analysis. The assay is classed as cell-based. As to conditions: CAL-27.
The target is the same in assay [10]. As to the kind of experiment: Inhibition of class 1 HDAC in human CAL27 cells assessed as potentiation of cisplatin-induced cytotoxicity by measuring combination index at 1 uM in presence of 1 uM cisplatin by MTT assay based Chou-Talalay analysis. Conditions: CAL-27. The assay is classed as cell-based.
Assay [11] shares this target. Put plainly: Inhibition of class 1 HDAC in human CAL27 cells assessed as potentiation of cisplatin-induced cytotoxicity by measuring combination index at 1 uM in presence of […] cisplatin by MTT assay based Chou-Talalay analysis. The assay is classed as cell-based. As to conditions: CAL-27.
For assay [12] the target is unchanged. As to the kind of experiment: Inhibition of class 1 HDAC in human Cal27CisR cells assessed as potentiation of cisplatin-induced cytotoxicity by measuring combination index at […] in presence of […] cisplatin by MTT assay based Chou-Talalay analysis. The assay is classed as cell-based.
Assay [13] has the same target. Put plainly: Inhibition of class 1 HDAC in human Cal27CisR cells assessed as potentiation of cisplatin-induced cytotoxicity by measuring combination index at […] in presence of 100 uM cisplatin by MTT assay based Chou-Talalay analysis. The assay is classed as cell-based.
For assay [14] the target is unchanged. Conditions: CAL-27.
Description: Inhibition of class 1 HDAC in human CAL27 cells assessed as potentiation of cisplatin-induced cytotoxicity by measuring combination index at 0.5 uM in presence of 0.1 uM cisplatin by MTT assay based Chou-Talalay analysis
Assay [15] shares this target. Conditions: CAL-27. This is another data set of the same source.
Description: Inhibition of class 1 HDAC in human CAL27 cells assessed as potentiation of cisplatin-induced cytotoxicity by measuring combination index at 0.5 uM in presence of 1 uM cisplatin by MTT assay based Chou-Talalay analysis

Some results are limits rather than exact numbers.

Sequence of Histone deacetylase 4 (P56524 whole entry, the tested form may be a part): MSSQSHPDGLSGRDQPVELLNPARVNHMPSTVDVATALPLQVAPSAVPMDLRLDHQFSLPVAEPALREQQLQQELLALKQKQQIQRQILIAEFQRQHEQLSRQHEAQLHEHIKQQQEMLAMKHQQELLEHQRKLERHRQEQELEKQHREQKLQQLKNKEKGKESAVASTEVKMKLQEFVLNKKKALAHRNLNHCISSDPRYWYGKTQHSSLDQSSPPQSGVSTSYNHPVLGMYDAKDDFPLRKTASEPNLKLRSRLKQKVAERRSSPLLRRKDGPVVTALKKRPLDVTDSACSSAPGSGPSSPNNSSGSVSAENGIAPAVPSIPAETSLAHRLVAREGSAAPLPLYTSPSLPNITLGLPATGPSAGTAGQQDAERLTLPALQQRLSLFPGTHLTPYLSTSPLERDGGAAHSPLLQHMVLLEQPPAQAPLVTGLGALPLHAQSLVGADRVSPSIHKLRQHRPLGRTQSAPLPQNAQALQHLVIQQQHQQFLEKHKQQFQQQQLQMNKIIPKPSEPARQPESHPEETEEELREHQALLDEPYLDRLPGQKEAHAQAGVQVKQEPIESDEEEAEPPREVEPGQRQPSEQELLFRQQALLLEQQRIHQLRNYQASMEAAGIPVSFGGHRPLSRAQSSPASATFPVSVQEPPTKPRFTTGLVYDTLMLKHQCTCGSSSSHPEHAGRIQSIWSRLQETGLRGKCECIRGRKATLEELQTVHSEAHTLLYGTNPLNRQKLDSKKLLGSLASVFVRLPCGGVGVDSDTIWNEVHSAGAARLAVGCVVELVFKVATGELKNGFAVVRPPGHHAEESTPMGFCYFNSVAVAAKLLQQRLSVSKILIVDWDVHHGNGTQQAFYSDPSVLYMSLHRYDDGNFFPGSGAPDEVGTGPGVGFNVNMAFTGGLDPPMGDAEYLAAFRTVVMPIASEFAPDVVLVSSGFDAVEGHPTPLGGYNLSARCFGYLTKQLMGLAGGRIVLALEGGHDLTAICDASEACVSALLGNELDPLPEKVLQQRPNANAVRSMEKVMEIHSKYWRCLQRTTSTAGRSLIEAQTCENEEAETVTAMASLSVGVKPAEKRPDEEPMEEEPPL
T1 sequence (O15379 whole entry, looked up, one chain of several): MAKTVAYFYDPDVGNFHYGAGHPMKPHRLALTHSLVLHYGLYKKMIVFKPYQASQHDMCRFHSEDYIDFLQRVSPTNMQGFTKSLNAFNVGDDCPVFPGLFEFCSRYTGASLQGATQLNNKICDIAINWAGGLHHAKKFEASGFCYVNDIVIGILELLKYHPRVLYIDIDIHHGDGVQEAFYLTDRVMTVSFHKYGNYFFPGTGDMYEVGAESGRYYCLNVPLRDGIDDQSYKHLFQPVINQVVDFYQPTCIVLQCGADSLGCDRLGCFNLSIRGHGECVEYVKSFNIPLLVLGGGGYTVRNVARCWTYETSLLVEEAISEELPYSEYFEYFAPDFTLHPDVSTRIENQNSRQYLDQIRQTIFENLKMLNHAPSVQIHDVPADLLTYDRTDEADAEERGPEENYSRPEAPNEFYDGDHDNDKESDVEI
T1 sequence (Q13547 whole entry, looked up, one chain of several): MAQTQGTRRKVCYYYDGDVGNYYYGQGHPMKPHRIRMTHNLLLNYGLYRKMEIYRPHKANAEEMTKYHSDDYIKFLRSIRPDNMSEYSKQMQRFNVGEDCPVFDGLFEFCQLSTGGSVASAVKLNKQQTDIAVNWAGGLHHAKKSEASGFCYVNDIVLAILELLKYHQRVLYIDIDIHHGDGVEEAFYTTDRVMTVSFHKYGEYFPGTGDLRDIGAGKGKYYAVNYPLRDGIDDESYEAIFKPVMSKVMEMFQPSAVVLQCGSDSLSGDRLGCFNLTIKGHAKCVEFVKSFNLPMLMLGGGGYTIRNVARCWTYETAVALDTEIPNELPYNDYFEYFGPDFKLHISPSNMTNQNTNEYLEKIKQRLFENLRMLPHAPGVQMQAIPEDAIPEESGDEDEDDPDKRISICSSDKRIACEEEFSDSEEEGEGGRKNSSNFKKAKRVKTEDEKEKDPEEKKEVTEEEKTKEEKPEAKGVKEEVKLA
T1 sequence (Q92769 whole entry, looked up, one chain of several): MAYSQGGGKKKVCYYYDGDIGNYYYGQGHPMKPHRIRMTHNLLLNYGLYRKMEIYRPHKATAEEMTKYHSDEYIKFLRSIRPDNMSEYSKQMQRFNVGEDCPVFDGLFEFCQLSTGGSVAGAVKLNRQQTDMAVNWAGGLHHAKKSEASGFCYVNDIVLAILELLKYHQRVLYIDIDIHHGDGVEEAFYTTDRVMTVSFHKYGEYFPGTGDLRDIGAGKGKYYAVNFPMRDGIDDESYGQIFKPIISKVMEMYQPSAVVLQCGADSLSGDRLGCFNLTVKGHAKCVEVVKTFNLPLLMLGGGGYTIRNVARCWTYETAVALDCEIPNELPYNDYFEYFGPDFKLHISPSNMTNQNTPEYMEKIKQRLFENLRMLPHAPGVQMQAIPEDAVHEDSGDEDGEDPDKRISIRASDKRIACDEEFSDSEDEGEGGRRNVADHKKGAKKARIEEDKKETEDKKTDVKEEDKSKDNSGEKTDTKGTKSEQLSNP
Sequence of Histone deacetylase 1 (Q13547 whole entry): as the sequence (Q13547 whole entry, looked up, one chain of several) above

Turning to `Cc1cc(C)cc(C(=O)N(CC(=O)NCc2ccccc2)Cc2ccc(C(=O)Nc3cc(-c4ccccc4)ccc3N)cc2)c1`, the CI in assay [1] is 0.34; in assay [9] it was 0.39; in [10], 0.46; in assay [11], 0.52; in assay [12] it was 0.89; in [13], 0.19. Besides, the CI in [14] is 0.5; in [15], 0.59. For the same compound, the IC50 in assay [2] was over 10 µM; in assay [3] it was 0.051 µM; in assay [4], 8.9 µM; in assay [5], 1.72 µM; in assay [6], 0.63 µM; in [7], over 10 µM. Moreover, the IC50 in assay [8] came out at 3.13 µM.
Consider `CN(C)c1ccc(C(=O)N(CC(=O)NCc2ccccc2)Cc2ccc(C(=O)Nc3ccccc3N)cc2)cc1`, for which the IC50 is over 10 µM in assay [2]; 0.038 µM in [3]; 1.6 µM in assay [4]; 0.48 µM in [5]; 0.11 µM in [6]; over 10 µM in assay [7]. In addition, in assay [8], the IC50 is 9.21 µM. The CI in [14] amounted to 0.4; in assay [15], 0.16.
On to `Cc1cc(C)cc(C(=O)N(CCCCCC(=O)Nc2cc(-c3ccccc3)ccc2N)CC(=O)NCc2ccccc2)c1`, for which the CI is under 0.2 in assay [1]; under 0.2 in assay [9]; under 0.2 in assay [10]; under 0.2 in assay [11]; under 0.2 in assay [12]; 0.09 in assay [13]. Moreover, the IC50 in [2] is over 10 µM; in assay [3], 0.057 µM; in assay [4], 18.9 µM; in [5] it was 1.43 µM; in assay [6] it was 0.47 µM; in assay [7] it was over 10 µM. Moreover, the IC50 in assay [8] was over 10 µM.

The IC50 is the point on the concentration scale where inhibition reaches its midpoint.
